Data from paper PMC12371487, “Phenylalkyl Acetophenones and Anacardic Acids from Knema oblongifolia with Synthetic Analogues as Anti-infectives and Antibacterial Agents” (ACS Bio & Med Chem Au, 2025).
Values after ≈ are worked out from the molar mass of the structure shown.

Test system: Staphylococcus aureus (Sa) Newman strain
Assay: MIC determination in Mueller-Hinton broth (CLSI) on Sa
Format: cell-based
Conditions: Staphylococcus aureus, NEWMAN, read-out: MIC on Sa
Description: MICs were determined in Mueller–Hinton (MH) broth according to CLSI guidelines and were repeated at least on three different occasions.
The Newman strain ofS. aureus and the UCBPP-PA14 strain ofP. aeruginosa were used in this study.

With `CN[C@H](CC(C)C)C(=O)N[C@H]1C(=O)N[C@@H](CC(N)=O)C(=O)N[C@H]2C(=O)N[C@H]3C(=O)N[C@H](C(=O)N[C@H](C(=O)O)c4cc(O)cc(O)c4-c4cc3ccc4O)[C@H](O)c3ccc(c(Cl)c3)Oc3cc2cc(c3O[C@@H]2O[C@H](CO)[C@@H](O)[C@H](O)[C@H]2O[C@H]2C[C@](C)(N)[C@H](O)[C@H](C)O2)Oc2ccc(cc2Cl)[C@H]1O` [vancomycin, reference compound] the MIC was 1 µg/mL (≈ 0.69 µM).
